Experimental data taken from BigSolDB 2.1.

CC1CCC(=O)C1=O (stereo unspecified)
solubility (mole fraction)
Settings | 278.15 K | 283.15 K | 288.15 K | 293.15 K | 298.15 K | 303.15 K | 308.15 K | 313.15 K
in 1,2-dichloroethane | 0.0554 | 0.0773 | 0.0992 | 0.122 | 0.153 | 0.184 | 0.215 | 0.254
in acetone | 0.0937 | 0.105 | 0.133 | 0.152 | 0.182 | 0.221 | 0.255 | 0.298
in acetonitrile | 0.0331 | 0.0519 | 0.0657 | 0.0823 | 0.11 | 0.139 | 0.17 | 0.204
in dichloromethane | 0.103 | 0.123 | 0.145 | 0.18 | 0.217 | 0.251 | 0.292 | 0.333
in ethanol | 0.044 | 0.0503 | 0.0645 | 0.0752 | 0.0939 | 0.111 | 0.145 | 0.187
in ethyl acetate | 0.0482 | 0.0574 | 0.0698 | 0.094 | 0.131 | 0.156 | 0.203 | 0.251
in ethyl formate | 0.0504 | 0.0603 | 0.0707 | 0.0943 | 0.12 | 0.147 | 0.176 | 0.239
in isobutanol | 0.0394 | 0.0467 | 0.052 | 0.0701 | 0.0866 | 0.111 | 0.153 | 0.211
in isopropanol | 0.0198 | 0.0388 | 0.0599 | 0.0768 | 0.101 | 0.13 | 0.165 | 0.207
in methanol | 0.0488 | 0.0629 | 0.0787 | 0.0966 | 0.119 | 0.147 | 0.177 | 0.208
in n-butanol | 0.0353 | 0.0444 | 0.0552 | 0.0693 | 0.0858 | 0.105 | 0.133 | 0.18
in n-propanol | 0.0389 | 0.0474 | 0.0581 | 0.0731 | 0.0903 | 0.113 | 0.141 | 0.202
